# Experimental data from patent publication US20150197497A1, “SELECTIVE INHIBITORS OF HISTONE DEACETYLASE ISOFORM 6 AND METHODS THEREOF” (DANA-FARBER CANCER INSTITUTE, INC., priority 2011, published 2015).
# Assays:
# HDAC5 = target: T1, HDAC5 (Homo sapiens, UniProt Q9UQL6); assay: In vitro HDAC enzyme inhibition assay, HDAC5; format: biochemical; settings: for HDAC5/HDAC6 in vitro selectivity: ratio of IC50 for HDAC5 relative to that of HDAC6; for IC50: recombinant full-length HDAC5, substrate MAZ1675 40 μM
# T1 construct: Recombinant, full-length HDAC protein (BPS Biosciences) was incubated with fluorophore conjugated substrate; purchased BPS Biosciences
# T1 sequence (Q9UQL6 whole entry): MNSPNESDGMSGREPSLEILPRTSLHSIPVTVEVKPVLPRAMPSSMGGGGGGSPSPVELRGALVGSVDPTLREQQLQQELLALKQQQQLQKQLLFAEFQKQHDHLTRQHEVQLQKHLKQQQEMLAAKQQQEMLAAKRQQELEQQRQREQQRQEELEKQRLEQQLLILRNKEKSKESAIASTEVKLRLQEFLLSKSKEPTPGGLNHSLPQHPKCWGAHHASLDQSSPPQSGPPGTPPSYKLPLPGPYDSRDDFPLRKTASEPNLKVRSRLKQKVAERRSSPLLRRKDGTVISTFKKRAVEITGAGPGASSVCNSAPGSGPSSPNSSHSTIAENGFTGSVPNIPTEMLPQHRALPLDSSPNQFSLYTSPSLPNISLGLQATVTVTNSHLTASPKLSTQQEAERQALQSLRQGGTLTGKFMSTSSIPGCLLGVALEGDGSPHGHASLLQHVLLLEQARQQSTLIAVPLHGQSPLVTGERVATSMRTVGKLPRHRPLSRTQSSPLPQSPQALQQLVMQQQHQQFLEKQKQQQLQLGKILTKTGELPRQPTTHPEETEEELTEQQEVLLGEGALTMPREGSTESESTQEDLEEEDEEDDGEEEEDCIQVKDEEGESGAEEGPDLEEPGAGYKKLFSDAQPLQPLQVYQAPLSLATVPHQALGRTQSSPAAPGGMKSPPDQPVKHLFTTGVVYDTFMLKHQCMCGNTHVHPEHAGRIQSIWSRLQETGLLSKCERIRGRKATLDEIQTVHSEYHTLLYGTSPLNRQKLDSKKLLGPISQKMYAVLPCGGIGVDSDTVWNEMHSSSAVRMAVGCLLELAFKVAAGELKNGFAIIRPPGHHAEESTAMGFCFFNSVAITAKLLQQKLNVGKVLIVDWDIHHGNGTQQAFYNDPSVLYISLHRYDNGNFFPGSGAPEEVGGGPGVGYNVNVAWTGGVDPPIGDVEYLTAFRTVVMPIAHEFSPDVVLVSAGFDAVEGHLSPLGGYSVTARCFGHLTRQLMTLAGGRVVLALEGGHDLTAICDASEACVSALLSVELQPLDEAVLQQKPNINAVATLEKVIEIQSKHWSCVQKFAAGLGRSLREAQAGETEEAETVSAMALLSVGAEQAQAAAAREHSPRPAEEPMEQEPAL
# Method: (§1) In vitro Histone Deacetylase enzyme assays were performed using Class I (isoforms: HDAC1, HDAC2, HDAC3 and HDAC8), class IIa (isoforms: HDAC4, HDAC5, HDAC7 and HDAC9) and class IIb (isoform HDAC6).
# (§2) HDAC activities were determined in vitro with an optimized homogenous assay performed in a 384-well plate. Recombinant, full-length HDAC protein (BPS Biosciences) was incubated with fluorophore conjugated substrate, MAZ1600 and MAZ1675, at Km=[S]. […] Reactions were performed in assay buffer (50 mM HEPES, 100 mM KCl, 0.001% Tween-20, 0.05% BSA, 200 μM tris(2-carboxyethyl)phosphine (TCEP), pH 7.4) and followed for fluorogenic release of 7-amino-4-methylcoumarin from substrate upon deacetylase and trypsin enzymatic activity. Fluorescence measurements were obtained every five minutes using a multilabel plate reader and plate-stacker (Envision; Perkin-Elmer). Each plate was analyzed by plate repeat, and the first derivative within the linear range was imported into analytical software (Spotfire DecisionSite and GraphPad Prism). Replicate experimental data from incubations with inhibitor were normalized to controls.
# HDAC2 = target: T2, HDAC2 (Homo sapiens, UniProt Q92769); assay: In vitro HDAC enzyme inhibition assay, HDAC2; format: biochemical; settings: for HDAC2/HDAC6 in vitro selectivity: ratio of IC50 for HDAC2 relative to that of HDAC6; for IC50: recombinant full-length HDAC2, substrate MAZ1600 22 μM
# T2 construct: Recombinant, full-length HDAC protein (BPS Biosciences) was incubated with fluorophore conjugated substrate; purchased BPS Biosciences
# T2 sequence (Q92769 whole entry): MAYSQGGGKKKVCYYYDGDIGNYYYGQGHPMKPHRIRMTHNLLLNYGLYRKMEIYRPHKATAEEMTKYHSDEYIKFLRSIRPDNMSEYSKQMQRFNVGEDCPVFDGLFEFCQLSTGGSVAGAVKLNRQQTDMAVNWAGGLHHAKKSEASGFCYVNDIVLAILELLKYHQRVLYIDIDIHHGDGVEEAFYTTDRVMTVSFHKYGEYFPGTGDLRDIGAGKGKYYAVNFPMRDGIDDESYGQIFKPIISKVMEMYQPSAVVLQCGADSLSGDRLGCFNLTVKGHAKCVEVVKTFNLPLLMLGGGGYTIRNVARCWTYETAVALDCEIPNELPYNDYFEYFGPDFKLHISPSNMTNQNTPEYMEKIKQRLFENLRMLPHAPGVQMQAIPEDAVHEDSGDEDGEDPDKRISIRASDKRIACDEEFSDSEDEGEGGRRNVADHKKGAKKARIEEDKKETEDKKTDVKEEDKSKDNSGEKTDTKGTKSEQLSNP
# Method: as §1, §2
# HDAC9 = target: T3, HDAC9 (Homo sapiens, UniProt Q9UKV0); assay: In vitro HDAC enzyme inhibition assay, HDAC9; format: biochemical; settings: for HDAC9/HDAC6 in vitro selectivity: ratio of IC50 for HDAC9 relative to that of HDAC6; for IC50: recombinant full-length HDAC9, substrate MAZ1675 26 μM
# T3 construct: Recombinant, full-length HDAC protein (BPS Biosciences) was incubated with fluorophore conjugated substrate; purchased BPS Biosciences
# T3 sequence (Q9UKV0 whole entry): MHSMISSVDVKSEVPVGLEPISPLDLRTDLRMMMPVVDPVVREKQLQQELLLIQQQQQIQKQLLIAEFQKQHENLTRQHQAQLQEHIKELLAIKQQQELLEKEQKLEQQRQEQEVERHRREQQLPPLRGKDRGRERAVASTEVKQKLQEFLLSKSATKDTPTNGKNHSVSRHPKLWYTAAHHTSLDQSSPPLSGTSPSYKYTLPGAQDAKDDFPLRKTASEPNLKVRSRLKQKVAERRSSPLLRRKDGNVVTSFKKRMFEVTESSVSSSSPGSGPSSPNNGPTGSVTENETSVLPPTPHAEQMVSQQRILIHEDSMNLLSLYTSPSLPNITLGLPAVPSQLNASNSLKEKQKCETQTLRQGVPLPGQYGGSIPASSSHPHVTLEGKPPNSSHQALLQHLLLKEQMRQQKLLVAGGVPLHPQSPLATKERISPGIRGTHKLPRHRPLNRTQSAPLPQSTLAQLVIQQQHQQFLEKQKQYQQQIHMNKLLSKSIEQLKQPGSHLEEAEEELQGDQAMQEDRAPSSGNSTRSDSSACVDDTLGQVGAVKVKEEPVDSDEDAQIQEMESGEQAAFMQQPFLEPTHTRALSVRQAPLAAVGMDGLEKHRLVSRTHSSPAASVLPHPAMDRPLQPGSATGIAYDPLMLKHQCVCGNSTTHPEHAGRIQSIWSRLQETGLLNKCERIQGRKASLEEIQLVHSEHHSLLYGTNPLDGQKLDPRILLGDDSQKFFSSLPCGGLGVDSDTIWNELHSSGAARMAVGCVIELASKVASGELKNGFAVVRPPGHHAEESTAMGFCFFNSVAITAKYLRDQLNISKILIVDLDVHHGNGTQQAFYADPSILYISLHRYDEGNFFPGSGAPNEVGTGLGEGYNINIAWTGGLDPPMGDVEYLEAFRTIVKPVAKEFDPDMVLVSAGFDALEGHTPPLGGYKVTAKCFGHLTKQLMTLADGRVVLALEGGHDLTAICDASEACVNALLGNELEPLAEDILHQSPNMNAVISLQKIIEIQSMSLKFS
# Method: as §1, §2
# HDAC3 = target: T4, HDAC3 (Homo sapiens, UniProt O15379); assay: In vitro HDAC enzyme inhibition assay, HDAC3; format: biochemical; settings: for HDAC3/HDAC6 in vitro selectivity: ratio of IC50 for HDAC3 relative to that of HDAC6; for IC50: recombinant full-length HDAC3, substrate MAZ1600 9 μM
# T4 construct: Recombinant, full-length HDAC protein (BPS Biosciences) was incubated with fluorophore conjugated substrate; purchased BPS Biosciences
# T4 sequence (O15379 whole entry): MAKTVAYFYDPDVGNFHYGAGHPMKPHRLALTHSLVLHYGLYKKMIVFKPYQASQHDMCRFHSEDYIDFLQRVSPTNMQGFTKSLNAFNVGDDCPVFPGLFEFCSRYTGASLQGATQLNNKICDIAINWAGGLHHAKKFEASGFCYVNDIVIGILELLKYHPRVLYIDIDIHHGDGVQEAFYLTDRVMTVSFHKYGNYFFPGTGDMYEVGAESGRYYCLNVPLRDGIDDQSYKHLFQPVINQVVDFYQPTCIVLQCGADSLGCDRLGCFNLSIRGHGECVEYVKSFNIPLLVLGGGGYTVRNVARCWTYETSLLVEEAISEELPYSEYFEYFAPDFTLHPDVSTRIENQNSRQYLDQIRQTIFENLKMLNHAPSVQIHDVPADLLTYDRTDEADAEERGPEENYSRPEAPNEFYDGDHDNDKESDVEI
# T4 sequence (Q9Y618 395-489 partner limits assumed): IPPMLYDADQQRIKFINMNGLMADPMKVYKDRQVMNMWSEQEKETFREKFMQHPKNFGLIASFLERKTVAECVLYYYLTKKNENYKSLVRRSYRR
# Method: as §1, §2
# HDAC8 = target: T5, HDAC8 (Homo sapiens, UniProt Q9BY41); assay: In vitro HDAC enzyme inhibition assay, HDAC8; format: biochemical; settings: for HDAC8/HDAC6 in vitro selectivity: ratio of IC50 for HDAC8 relative to that of HDAC6; for IC50: recombinant full-length HDAC8, substrate MAZ1675 282 μM
# T5 construct: Recombinant, full-length HDAC protein (BPS Biosciences) was incubated with fluorophore conjugated substrate; purchased BPS Biosciences
# T5 sequence (Q9BY41 1-377): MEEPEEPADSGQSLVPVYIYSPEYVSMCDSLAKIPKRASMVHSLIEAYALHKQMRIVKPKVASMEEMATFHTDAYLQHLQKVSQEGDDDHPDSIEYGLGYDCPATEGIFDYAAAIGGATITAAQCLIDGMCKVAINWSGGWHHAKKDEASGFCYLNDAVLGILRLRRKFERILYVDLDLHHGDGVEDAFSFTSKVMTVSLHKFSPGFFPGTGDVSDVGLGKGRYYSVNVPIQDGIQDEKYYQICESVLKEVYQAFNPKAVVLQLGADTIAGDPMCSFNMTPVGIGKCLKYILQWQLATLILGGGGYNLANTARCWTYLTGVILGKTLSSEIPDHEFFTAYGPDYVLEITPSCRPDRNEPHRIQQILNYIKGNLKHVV
# Method: as §1, §2
# HDAC7 = target: T6, HDAC7 (Homo sapiens, UniProt Q8WUI4); assay: In vitro HDAC enzyme inhibition assay, HDAC7; format: biochemical; settings: for HDAC7/HDAC6 in vitro selectivity: ratio of IC50 for HDAC7 relative to that of HDAC6; for IC50: recombinant full-length HDAC7, substrate MAZ1675 22 μM
# T6 construct: Recombinant, full-length HDAC protein (BPS Biosciences) was incubated with fluorophore conjugated substrate; purchased BPS Biosciences
# T6 sequence (Q8WUI4 1-952): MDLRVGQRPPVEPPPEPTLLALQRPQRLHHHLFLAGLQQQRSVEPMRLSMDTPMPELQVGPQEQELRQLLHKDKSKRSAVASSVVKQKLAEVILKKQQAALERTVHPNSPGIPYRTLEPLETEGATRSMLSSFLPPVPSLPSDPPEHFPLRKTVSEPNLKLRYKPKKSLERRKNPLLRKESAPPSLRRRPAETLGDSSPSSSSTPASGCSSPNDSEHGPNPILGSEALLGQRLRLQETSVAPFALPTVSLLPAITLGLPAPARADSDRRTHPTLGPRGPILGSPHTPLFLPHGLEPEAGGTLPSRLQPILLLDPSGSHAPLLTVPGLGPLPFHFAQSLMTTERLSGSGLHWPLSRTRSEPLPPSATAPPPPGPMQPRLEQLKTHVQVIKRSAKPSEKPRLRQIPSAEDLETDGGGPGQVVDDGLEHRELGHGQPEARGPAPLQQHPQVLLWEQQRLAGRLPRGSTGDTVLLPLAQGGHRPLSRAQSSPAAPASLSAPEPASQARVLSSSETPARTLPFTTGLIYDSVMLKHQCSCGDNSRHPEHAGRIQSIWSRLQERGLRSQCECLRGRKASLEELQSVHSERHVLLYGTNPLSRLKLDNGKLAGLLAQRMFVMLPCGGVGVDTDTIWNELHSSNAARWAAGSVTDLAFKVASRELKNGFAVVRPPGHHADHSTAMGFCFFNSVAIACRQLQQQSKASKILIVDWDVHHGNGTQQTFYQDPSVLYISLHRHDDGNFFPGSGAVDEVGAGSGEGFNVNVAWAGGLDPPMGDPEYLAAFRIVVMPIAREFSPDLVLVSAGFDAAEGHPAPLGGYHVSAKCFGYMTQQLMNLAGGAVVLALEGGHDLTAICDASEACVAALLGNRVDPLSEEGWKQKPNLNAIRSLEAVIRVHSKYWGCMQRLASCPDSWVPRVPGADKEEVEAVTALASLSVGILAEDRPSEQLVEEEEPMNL
# Method: as §1, §2
# acetylated tubulin = assay: High-content image analysis of induction of acetylated tubulin in A549 cells; settings: for levels of acetylated tubulin, dose response (in words) / AcHistone/AcTubulin in cell selectivity toward HDAC6: A549 cells; for levels of acetylated tubulin, dose response (in words): FIG. 11; for EC50: Homo sapiens, A549, 8 h, read-out: EC50 for half-maximal induction of acetylated tubulin (AcTubulin); for AcHistone/AcTubulin in cell selectivity toward HDAC6: ratio of EC50 acetylated histone to EC50 acetylated tubulin
# Method: Cells were treated with each test HDACi compound with an automated pin transfer instrument (Janus, Perkin Elmer) and incubated for 8 hours. […] Fixation solution was aspirated and 90 μL of washing solution (0.1% Triton X-100 in PBS) was added prior to 10 minute incubation at 4° C. Washing solution was aspirated and cells were incubated at 4° C. for about 1 hour in blocking solution (0.1% Triton X-100+2% BSA in PBS). Washing solution was aspirated, and cells were incubated for about 1 hour at 4° C. in primary antibody for acetylated-tubulin (Sigma T7451) and acetylated-histone (Cell Signaling #9441L) at a 1:1000 dilution in blocking solution. Primary antibody solution was aspirated, and cells were washed three times in 90 μL of washing solution. […] Secondary antibody and nuclear staining solution was aspirated and cells were washed three times in 90 μL of washing solution. After the third wash, 50 μL of PBS was added to each well. Image acquisition was done on a high content imaging microscope (ImageXpress Micro, Molecular Devices), and image analysis (MetaXpress, Molecular Devices) was performed to obtain average acetylated-tubulin and acetylated-histone signal per cell based on treatment. Replicate experimental data from incubations with inhibitor were normalized to DMSO controls.
smiles,measurement,setting,value
"O=C(NO)c1ccc(Cn2c(C(F)(F)F)nc3ccccc32)cc1 [A1, N-hydroxy-4-((2-(trifluoromethyl)-1H-benzo[d]imidazol-1-yl)methyl)benzamide]",HDAC5/HDAC6 in vitro selectivity,HDAC5,953
same,IC50,HDAC5,450 nM
same,HDAC2/HDAC6 in vitro selectivity,HDAC2,1230
same,IC50,HDAC2,581 nM
same,HDAC9/HDAC6 in vitro selectivity,HDAC9,2167
same,IC50,HDAC9,1020 nM
same,HDAC3/HDAC6 in vitro selectivity,HDAC3,3791
same,IC50,HDAC3,1790 nM
same,HDAC8/HDAC6 in vitro selectivity,HDAC8,3764
same,IC50,HDAC8,1780 nM
same,HDAC7/HDAC6 in vitro selectivity,HDAC7,255
same,IC50,HDAC7,121 nM
same,"levels of acetylated tubulin, dose response (in words)",acetylated tubulin,dose-dependent increase
same,EC50,acetylated tubulin,452 nM
same,AcHistone/AcTubulin in cell selectivity toward HDAC6,acetylated tubulin,14.01
"Cc1ccc2c(c1)nc(C(F)(F)F)n2Cc1ccc(C(=O)NO)cc1 [A2, N-hydroxy-4-((5-methyl-2-(trifluoromethyl)-1H-benzo[d]imidazol-1-yl)methyl)benzamide]",HDAC5/HDAC6 in vitro selectivity,HDAC5,537
same,IC50,HDAC5,164 nM
same,HDAC2/HDAC6 in vitro selectivity,HDAC2,553
same,IC50,HDAC2,169 nM
same,HDAC9/HDAC6 in vitro selectivity,HDAC9,1942
same,IC50,HDAC9,594 nM
same,HDAC3/HDAC6 in vitro selectivity,HDAC3,3718
same,IC50,HDAC3,1140 nM
same,HDAC8/HDAC6 in vitro selectivity,HDAC8,4364
same,IC50,HDAC8,1330 nM
same,HDAC7/HDAC6 in vitro selectivity,HDAC7,348
same,IC50,HDAC7,106 nM
same,EC50,acetylated tubulin,100 nM
same,AcHistone/AcTubulin in cell selectivity toward HDAC6,acetylated tubulin,2.411
"O=C(NO)c1ccc(Cn2c(C(F)(F)F)nc3cc(F)ccc32)cc1 [A3, 4-((5-fluoro-2-(trifluoromethyl)-1H-benzo[d]imidazol-1-yl)methyl)-N-hydroxybenzamide]",HDAC5/HDAC6 in vitro selectivity,HDAC5,486
same,IC50,HDAC5,279 nM
same,HDAC2/HDAC6 in vitro selectivity,HDAC2,844
same,IC50,HDAC2,484 nM
same,HDAC9/HDAC6 in vitro selectivity,HDAC9,2127
same,IC50,HDAC9,1220 nM
same,HDAC3/HDAC6 in vitro selectivity,HDAC3,3126
same,IC50,HDAC3,1790 nM
same,HDAC8/HDAC6 in vitro selectivity,HDAC8,2540
same,IC50,HDAC8,1460 nM
same,HDAC7/HDAC6 in vitro selectivity,HDAC7,484
same,IC50,HDAC7,278 nM
same,EC50,acetylated tubulin,77.3 nM
same,AcHistone/AcTubulin in cell selectivity toward HDAC6,acetylated tubulin,7.664
"O=C(NO)c1ccc(Cn2c(C(F)(F)F)nc3cc(Cl)ccc32)cc1 [A4, 4-((5-chloro-2-(trifluoromethyl)-1H-benzo[d]imidazol-1-yl)methyl)-N-hydroxybenzamide]",HDAC5/HDAC6 in vitro selectivity,HDAC5,246
same,IC50,HDAC5,285 nM
same,HDAC2/HDAC6 in vitro selectivity,HDAC2,259
same,IC50,HDAC2,300 nM
same,HDAC9/HDAC6 in vitro selectivity,HDAC9,943
same,IC50,HDAC9,1090 nM
same,HDAC3/HDAC6 in vitro selectivity,HDAC3,1096
same,IC50,HDAC3,1270 nM
same,HDAC8/HDAC6 in vitro selectivity,HDAC8,1240
same,IC50,HDAC8,1440 nM
same,HDAC7/HDAC6 in vitro selectivity,HDAC7,323
same,IC50,HDAC7,374 nM
same,"levels of acetylated tubulin, dose response (in words)",acetylated tubulin,dose-dependent increase
same,EC50,acetylated tubulin,275 nM
same,AcHistone/AcTubulin in cell selectivity toward HDAC6,acetylated tubulin,54.11
"O=C(NO)c1ccc(Cn2c(C(F)(F)F)nc3cc(Br)ccc32)cc1 [A5, 4-((5-bromo-2-(trifluoromethyl)-1H-benzo[d]imidazol-l-yl)methyl)-N-hydroxybenzamide]",HDAC5/HDAC6 in vitro selectivity,HDAC5,476
same,IC50,HDAC5,148 nM
same,HDAC2/HDAC6 in vitro selectivity,HDAC2,471
same,IC50,HDAC2,146 nM
same,HDAC9/HDAC6 in vitro selectivity,HDAC9,2420
same,IC50,HDAC9,750 nM
same,HDAC3/HDAC6 in vitro selectivity,HDAC3,2529
same,IC50,HDAC3,784 nM
same,HDAC8/HDAC6 in vitro selectivity,HDAC8,3501
same,IC50,HDAC8,1080 nM
same,HDAC7/HDAC6 in vitro selectivity,HDAC7,735
same,IC50,HDAC7,228 nM
same,EC50,acetylated tubulin,190 nM
same,AcHistone/AcTubulin in cell selectivity toward HDAC6,acetylated tubulin,10.17
"COc1ccc2c(c1)nc(C(F)(F)F)n2Cc1ccc(C(=O)NO)cc1 [A6, N-hydroxy-4-((5-methoxy-2-(trifluoromethyl)-1H-benzo[d]imidazol-1-yl)methyl)benzamide]",HDAC5/HDAC6 in vitro selectivity,HDAC5,637
same,IC50,HDAC5,250 nM
same,HDAC2/HDAC6 in vitro selectivity,HDAC2,522
same,IC50,HDAC2,205 nM
same,HDAC9/HDAC6 in vitro selectivity,HDAC9,1871
same,IC50,HDAC9,733 nM
same,HDAC3/HDAC6 in vitro selectivity,HDAC3,2067
same,IC50,HDAC3,810 nM
same,HDAC8/HDAC6 in vitro selectivity,HDAC8,3927
same,IC50,HDAC8,1540 nM
same,HDAC7/HDAC6 in vitro selectivity,HDAC7,1058
same,IC50,HDAC7,414 nM
same,EC50,acetylated tubulin,212 nM
same,AcHistone/AcTubulin in cell selectivity toward HDAC6,acetylated tubulin,12.2081
O=C(NO)c1ccc(Cn2cnc3ccccc32)cc1 [A7],HDAC5/HDAC6 in vitro selectivity,HDAC5,9794
same,IC50,HDAC5,958 nM
same,HDAC2/HDAC6 in vitro selectivity,HDAC2,1853
same,IC50,HDAC2,181 nM
same,HDAC9/HDAC6 in vitro selectivity,HDAC9,16631
same,IC50,HDAC9,1630 nM
same,HDAC3/HDAC6 in vitro selectivity,HDAC3,4791
same,IC50,HDAC3,469 nM
same,HDAC8/HDAC6 in vitro selectivity,HDAC8,6573
same,IC50,HDAC8,643 nM
same,HDAC7/HDAC6 in vitro selectivity,HDAC7,2606
same,IC50,HDAC7,255 nM
same,EC50,acetylated tubulin,159 nM
same,AcHistone/AcTubulin in cell selectivity toward HDAC6,acetylated tubulin,1.459
